Test results taken from ChEMBL document CHEMBL3112480, “γ-Alkylidene-γ-lactones and isobutylpyrrol-2(5H)-ones analogues to rubrolides as inhibitors of biofilm formation by gram-positive and gram-negative bacteria” (Bioorg Med Chem Lett, 2014).
≈ marks a conversion by molar mass, not a printed value. Each block holds one compound with its values, some of them ahead of it.

Tests used:
[1] = tested on: Streptococcus mutans; assay: Antibacterial activity against Streptococcus mutans ATCC 25175 assessed as effect on planktonic growth at 43.8 ug/ml after 20 hrs relative to control; assay type: functional
[2] = tested on: Streptococcus mutans; assay: Antibacterial activity against Streptococcus mutans ATCC 25175 assessed as effect on planktonic growth at 5.5 ug/ml after 20 hrs relative to control; assay type: functional
[3] = tested on: Pseudomonas aeruginosa; assay: Antibacterial activity against Pseudomonas aeruginosa ATCC 27853 assessed as effect on planktonic growth at 0.68 ug/ml after 20 hrs relative to control; assay type: functional
[4] = tested on: Pseudomonas aeruginosa; assay: Antibacterial activity against Pseudomonas aeruginosa ATCC 27853 assessed as effect on planktonic growth at 2.73 ug/ml after 20 hrs relative to control; assay type: functional
[5] = tested on: Staphylococcus epidermidis; assay: Antibacterial activity against Staphylococcus epidermidis ATCC 35547 assessed as effect on planktonic growth at 21.9 ug/ml after 20 hrs relative to control; assay type: functional
[6] = tested on: Staphylococcus epidermidis; assay: Antibacterial activity against Staphylococcus epidermidis ATCC 35547 assessed as effect on planktonic growth at 1.37 ug/ml after 20 hrs relative to control; assay type: functional
[7] = tested on: Staphylococcus aureus; assay: Antibacterial activity against Staphylococcus aureus ATCC 25923 assessed as effect on planktonic growth at 21.9 ug/ml after 20 hrs relative to control; assay type: functional
[8] = tested on: Pseudomonas aeruginosa; assay: Antibacterial activity against Pseudomonas aeruginosa ATCC 27853 assessed as effect on planktonic growth at 21.9 ug/ml after 20 hrs relative to control; assay type: functional
[9] = tested on: Streptococcus mutans; assay: Antibacterial activity against Streptococcus mutans ATCC 25175 assessed as effect on planktonic growth at 0.17 ug/ml after 20 hrs relative to control; assay type: functional
[10] = tested on: Staphylococcus epidermidis; assay: Antibacterial activity against Staphylococcus epidermidis ATCC 35547 assessed as effect on planktonic growth at 43.8 ug/ml after 20 hrs relative to control; assay type: functional
[11] = tested on: Staphylococcus epidermidis; assay: Antibacterial activity against Staphylococcus epidermidis ATCC 35547 assessed as effect on planktonic growth at 87.5 ug/ml after 20 hrs relative to control; assay type: functional
[12] = tested on: Pseudomonas aeruginosa; assay: Antibacterial activity against Pseudomonas aeruginosa ATCC 27853 assessed as effect on planktonic growth at 10.9 ug/ml after 20 hrs relative to control; assay type: functional
[13] = tested on: Streptococcus mutans; assay: Antibacterial activity against Streptococcus mutans ATCC 25175 assessed as effect on planktonic growth at 0.34 ug/ml after 20 hrs relative to control; assay type: functional
[14] = tested on: Staphylococcus epidermidis; assay: Antibacterial activity against Staphylococcus epidermidis ATCC 35547 assessed as effect on planktonic growth at 0.68 ug/ml after 20 hrs relative to control; assay type: functional
[15] = tested on: Staphylococcus aureus; assay: Antibacterial activity against Staphylococcus aureus ATCC 25923 assessed as effect on planktonic growth at 2.73 ug/ml after 20 hrs relative to control; assay type: functional
[16] = tested on: Staphylococcus epidermidis; assay: Antibacterial activity against Staphylococcus epidermidis ATCC 35547 assessed as effect on planktonic growth at 0.17 ug/ml after 20 hrs relative to control; assay type: functional
[17] = tested on: Streptococcus mutans; assay: Antibacterial activity against Streptococcus mutans ATCC 25175 assessed as effect on planktonic growth at 87.5 ug/ml after 20 hrs relative to control; assay type: functional
[18] = tested on: Pseudomonas aeruginosa; assay: Antibacterial activity against Pseudomonas aeruginosa ATCC 27853 assessed as effect on planktonic growth at 1.37 ug/ml after 20 hrs relative to control; assay type: functional
[19] = tested on: Staphylococcus epidermidis; assay: Antibacterial activity against Staphylococcus epidermidis ATCC 35547 assessed as effect on planktonic growth at 2.73 ug/ml after 20 hrs relative to control; assay type: functional
[20] = tested on: Staphylococcus aureus; assay: Antibacterial activity against Staphylococcus aureus ATCC 25923 assessed as effect on planktonic growth at 87.5 ug/ml after 20 hrs relative to control; assay type: functional
[21] = tested on: Staphylococcus aureus; assay: Antibacterial activity against Staphylococcus aureus ATCC 25923 assessed as effect on planktonic growth at 0.34 ug/ml after 20 hrs relative to control; assay type: functional
[22] = tested on: Staphylococcus epidermidis; assay: Antibacterial activity against Staphylococcus epidermidis ATCC 35547 assessed as effect on planktonic growth at 5.5 ug/ml after 20 hrs relative to control; assay type: functional
[23] = tested on: Pseudomonas aeruginosa; assay: Antibacterial activity against Pseudomonas aeruginosa ATCC 27853 assessed as effect on planktonic growth at 43.8 ug/ml after 20 hrs relative to control; assay type: functional
[24] = tested on: Streptococcus mutans; assay: Antibacterial activity against Streptococcus mutans ATCC 25175 assessed as effect on planktonic growth at 21.9 ug/ml after 20 hrs relative to control; assay type: functional
[25] = tested on: Streptococcus mutans; assay: Antibacterial activity against Streptococcus mutans ATCC 25175 assessed as effect on planktonic growth at 10.9 ug/ml after 20 hrs relative to control; assay type: functional
[26] = tested on: Pseudomonas aeruginosa; assay: Antibacterial activity against Pseudomonas aeruginosa ATCC 27853 assessed as effect on planktonic growth at 0.17 ug/ml after 20 hrs relative to control; assay type: functional
[27] = tested on: Staphylococcus aureus; assay: Antibacterial activity against Staphylococcus aureus ATCC 25923 assessed as effect on planktonic growth at 0.68 ug/ml after 20 hrs relative to control; assay type: functional
[28] = tested on: Staphylococcus aureus; assay: Antibacterial activity against Staphylococcus aureus ATCC 25923 assessed as effect on planktonic growth at 43.8 ug/ml after 20 hrs relative to control; assay type: functional
[29] = tested on: Streptococcus mutans; assay: Antibacterial activity against Streptococcus mutans ATCC 25175 assessed as effect on planktonic growth at 2.73 ug/ml after 20 hrs relative to control; assay type: functional
[30] = tested on: Streptococcus mutans; assay: Antibacterial activity against Streptococcus mutans ATCC 25175 assessed as effect on planktonic growth at 1.37 ug/ml after 20 hrs relative to control; assay type: functional
[31] = tested on: Staphylococcus aureus; assay: Antibacterial activity against Staphylococcus aureus ATCC 25923 assessed as effect on planktonic growth at 5.5 ug/ml after 20 hrs relative to control; assay type: functional
[32] = tested on: Staphylococcus epidermidis; assay: Antibacterial activity against Staphylococcus epidermidis ATCC 35547 assessed as inhibition of biofilm formation after 20 hrs by crystal-violet staining method; assay type: functional, organism-based; settings: for IC50: ATCC 35547, 20 h
[33] = tested on: Staphylococcus aureus; assay: Antibacterial activity against Staphylococcus aureus ATCC 25923 assessed as effect on planktonic growth at 1.37 ug/ml after 20 hrs relative to control; assay type: functional
[34] = tested on: Staphylococcus epidermidis; assay: Antibacterial activity against Staphylococcus epidermidis ATCC 35547 assessed as effect on planktonic growth at 10.9 ug/ml after 20 hrs relative to control; assay type: functional
[35] = tested on: Streptococcus mutans; assay: Antibacterial activity against Streptococcus mutans ATCC 25175 assessed as effect on planktonic growth at 0.68 ug/ml after 20 hrs relative to control; assay type: functional
[36] = tested on: Pseudomonas aeruginosa; assay: Antibacterial activity against Pseudomonas aeruginosa ATCC 27853 assessed as effect on planktonic growth at 0.34 ug/ml after 20 hrs relative to control; assay type: functional
[37] = tested on: Pseudomonas aeruginosa; assay: Antibacterial activity against Pseudomonas aeruginosa ATCC 27853 assessed as effect on planktonic growth at 87.5 ug/ml after 20 hrs relative to control; assay type: functional
[38] = tested on: Staphylococcus aureus; assay: Antibacterial activity against Staphylococcus aureus ATCC 25923 assessed as effect on planktonic growth at 10.9 ug/ml after 20 hrs relative to control; assay type: functional
[39] = tested on: Staphylococcus aureus; assay: Antibacterial activity against Staphylococcus aureus ATCC 25923 assessed as effect on planktonic growth at 0.17 ug/ml after 20 hrs relative to control; assay type: functional
[40] = tested on: Pseudomonas aeruginosa; assay: Antibacterial activity against Pseudomonas aeruginosa ATCC 27853 assessed as inhibition of biofilm formation after 20 hrs by crystal-violet staining method; assay type: functional, organism-based
[41] = tested on: Staphylococcus epidermidis; assay: Antibacterial activity against Staphylococcus epidermidis ATCC 35547 assessed as effect on planktonic growth at 0.34 ug/ml after 20 hrs relative to control; assay type: functional
[42] = tested on: Pseudomonas aeruginosa; assay: Antibacterial activity against Pseudomonas aeruginosa ATCC 27853 assessed as effect on planktonic growth at 5.5 ug/ml after 20 hrs relative to control; assay type: functional

IC50 [32]: 23 µg/mL (≈ 47.9 µM)
SMILES: COc1ccccc1C1=C(Br)C(=O)N(CC(C)C)/C1=C\c1ccc(C(F)(F)F)cc1
Activity [1]: -13.5%
Activity [2]: -3%
Activity [3]: 0.1%
Activity [4]: -9.2%
Activity [5]: 38.7%
Activity [6]: -17.9%
Activity [7]: -29.3%
Activity [8]: 53.2%
Activity [9]: 0.3%
Activity [10]: 37.8%
Activity [11]: -6.3%
Activity [12]: 35.6%
Activity [13]: 0.6%
Activity [14]: -13.2%
Activity [15]: -35.6%
Activity [16]: -22.1%
Activity [17]: 3.6%
Activity [18]: -5.9%
Activity [19]: -21.2%
Activity [20]: 1.8%
Activity [21]: -14.7%
Activity [22]: -14.8%
Activity [23]: 44%
Activity [24]: -11.6%
Activity [25]: -12.9%
Activity [26]: -2.1%
Activity [27]: -18.1%
Activity [28]: -15.4%
Activity [29]: 14%
Activity [30]: 10.7%
Activity [31]: -33.5%
inhibition [32]: Dose-dependent effect
Activity [33]: -30.9%
Activity [34]: 6.6%
Activity [35]: 5.5%
Activity [36]: -1.7%
Activity [37]: 35.2%
Activity [38]: -33.8%
Activity [39]: -5.8%
inhibition [40]: Dose-dependent effect
Activity [41]: -17%
Activity [42]: -1.7%

IC50 [32]: 48 µg/mL (≈ 102 µM)
IC50 ([40]; ATCC 27853, 20 h): 3.9 µg/mL (≈ 8.29 µM)
SMILES: COc1ccc(Cl)cc1C1=C(Br)C(=O)O/C1=C\c1ccccc1Br
Activity [1]: 26.9%
Activity [2]: 8.6%
Activity [3]: -5.1%
Activity [4]: -7.7%
Activity [5]: 27.3%
Activity [6]: 2.5%
Activity [7]: -8.3%
Activity [8]: -13.4%
Activity [9]: 19%
Activity [10]: 42.5%
Activity [11]: 74.6%
Activity [12]: -5.2%
Activity [13]: 5.6%
Activity [14]: 11.1%
Activity [15]: -14.4%
Activity [16]: 9.5%
Activity [17]: 57.5%
Activity [18]: -7%
Activity [19]: 2.9%
Activity [20]: 14.6%
Activity [21]: -10%
Activity [22]: 3.9%
Activity [23]: -9.1%
Activity [24]: 22.8%
Activity [25]: 8.2%
Activity [26]: -3.8%
Activity [27]: -10.6%
Activity [28]: -2.9%
Activity [29]: 4.1%
Activity [30]: 4.5%
Activity [31]: -16.7%
inhibition [32]: Dose-dependent effect
Activity [33]: -14%
Activity [34]: 12.1%
Activity [35]: 5.6%
Activity [36]: -5.3%
Activity [37]: -8.2%
Activity [38]: -16.9%
Activity [39]: -7.9%
inhibition [40]: Dose-dependent effect
Activity [41]: 51.8%
Activity [42]: -8.1%
